We go through one molecule from patent publication US10314816B2, “Antimicrobial compounds, compositions and methods of use thereof” (Wisconsin Alumni Research Foundation, priority 2012, dated 2019).

In one test the test system is C. crescentus cells. The test can be described thus: Cell lysis observed by phase contrast microscopy. Format: cell-based, Caulobacter crescentus. The method, then: The lysed cells appear fainter in phase contrast images, compared to un-lysed cells (e.g., a cell in the white circle).
At high concentrations of DCAP (≥75 μM), cell lysis within minutes after treatment was observed (FIG. 4).

Test [1] has as its system C. crescentus strain (MT97). The test can be described thus: In vivo screen with C. crescentus strain that expresses MipZ-YFP. The format is cell-based, Caulobacter crescentus. The conditions noted are these: 20 μM in agarose pad; data not shown. The protocol:
In vivo screen with a Caulobacter crescentus strain that expresses MipZ-YFP. Hits from in vitro screens were tested for activity in vivo. A C. crescentus strain (MT97) that expresses mipZ-yfp from the native mipZ promoter was used. An overnight culture of MT97 was diluted to an absorbance (λ=600 nm) of ˜0.1; the diluted culture was grown further for at least 1 hour prior to compound treatment. Compounds were mixed with a solution of 1% agarose in M2G media to achieve a final concentration of 20 μM. The cells (1 μL per pad) were transferred on top of the compound-containing agarose pad, and the cell morphology and localization of MipZ-YFP were imaged for a period of 24 hours using epifluorescence microscopy. In between microscopic observations, the inoculated pads were incubated at 30° C. to promote growth.
Hits were further screened for antibacterial activity using a Caulobacter crecentus strain that expresses MipZ-YFP as described in Materials and Methods.

Another test deals with MipZ-YFP. The test can be described thus: Effects of compounds on MipZ localization. The format is cell-based, Caulobacter crescentus. The conditions noted are these: DCAP 20 μM, 20 min after treating C. crescentus cells; p=0.0002 vs DMSO. The method, then:
Effects of compounds on MipZ localization. A strain of C. crescentus in which MipZ was translationally fused to yellow fluorescent protein (YFP) was used to determine the effect of DCAP on MipZ localization. For experiments with C. crescentus expressing MipZ-YFP, overnight cultures were diluted 10-fold and incubated at least 1 hour prior to treatment with compounds. After adding compounds, cells were incubated at 200 rpm and 30° C. for 20 minutes. Cells were imaged as described above. Following cell segmentation and fluorescence signal calculation in MicrobeTracker, a separate MATLAB script was used to detect signal peaks within an individual cell. The number of total peaks and peak locations were calculated (i.e., poles or mid-cell) for each cell. Poles were defined as 1-25% and 75-100% along the normalized cell length (1-100%). […] After this classification, a contingency table was created with the total number of cells analyzed, and the number of cells with the ‘wildtype’ localization. […]
As a positive control, carbonyl cyanide m-chlorophenyl hydrazone (CCCP) was used. In FIG. 3, ‘wildtype’ (WT) localization was defined as 1) unipolar (a single peak of fluorescence signal at a pole) and 2) bipolar (two peaks at poles). […] At least 69 cells were analyzed for each sample. […]

Another test has as its system E. aerogenes. The test can be described thus: MIC of bacterial growth (Table 2). Format: cell-based, Enterobacter aerogenes. The conditions noted are these: Klebsiella aerogenes; E. aerogenes clinical isolate (Table 2). The method, then:
(§1) Determination of the minimum inhibitory concentration (MIC) of bacterial growth. The MIC of various organisms in liquid media was determined using the macrodilution method according to the NCCLS guidelines. For the starting inoculum, cultures were diluted to contain approximately 5×10^5 cells/mL in growth media. To create a two-fold dilution series for the macrodilution technique, each compound was added to the first culture tube (4 mL total volume) at the highest concentration. 2 mL of this culture was diluted into an equal volume of inoculated media (a two-fold dilution). The final volume for each culture was 2 mL.

Test [2] has as its system E. coli BW25113 ΔtolC. The test can be described thus: MIC of bacterial growth, macrodilution (Table 2). The format is cell-based, Escherichia coli. The protocol: (§2) Bacterial strains and growth conditions. Luria-Bertani (LB) media (10 g/L tryptone, 10 g/L NaCl, 5 g/L yeast extract, pH 7.2) was used to grow B. subtilis 168, S. aureus FRI100, and P. aeruginosa K1115 strains. For P. aeruginosa PAO1 and K1119 strains and two E. coli BW25113 strains, M8 minimal media (241 mg/L MgSO4, 4 mg/L glucose, 5 mg/L casamino acids, 12.8 g/L Na2HPO4.7H2O, 3 g/L KH2PO4, and 0.5 g/L NaCl) was used. PYE media (2 g/L peptone, 1 g/L yeast extract, 0.8 mM MgSO4, and 0.5 mM CaCl2) was used for culturing C. crescentus cells at 30° C. All cultures were grown at 37° C., except for C. crescentus (30° C.). All cultures were grown while shaking at 200 rpm.
as §1

In test [3] the test system is E. coli BW25113 ΔtolC. The test can be described thus: MIC of DCAP analogs, LB media, macrodilution (CLSI). Format: cell-based. The conditions noted are these: Escherichia coli. The protocol: Luria-Bertani (LB) media (10 g/L tryptone, 10 g/L NaCl, 5 g/L yeast extract, pH 7.0) was used to grow all the strains represented in Tables 5 and 6. All the cultures were grown at 37° C. All the E. coli strains were grown while shaking at 200 rpm and the clinical pathogens were statically incubated. […]

For the next test, the system named is P. aeruginosa K1119. Nature of the test: MIC of bacterial growth, macrodilution (Table 2). The conditions noted are these: Pseudomonas aeruginosa. Format: cell-based. The protocol: as §2, §1
In a further test the test system is P. aeruginosa PAO1. Nature of the test: MIC of bacterial growth, macrodilution (Table 2). The format is cell-based. The conditions noted are these: Pseudomonas aeruginosa. The protocol:
as §2, §1

The subject of the next test is E. coli BW25113. The test can be described thus: MIC of bacterial growth, macrodilution (Table 2). Format: cell-based. The note with it: Escherichia coli. The protocol: as §2, §1
Another test relates to P. aeruginosa K1115. Nature of the test: MIC of bacterial growth, macrodilution (Table 2). Format: cell-based. The note with it: Pseudomonas aeruginosa. The method, then:
as §2, §1

A word on the MIC: it is the lowest concentration found to suppress growth. For `OCC(CO)(CO)NCC(O)Cn1c2ccc(Cl)cc2c2cc(Cl)ccc21` (stereo not drawn) [DCAP, 2-((3-(3,6-dichloro-9H-carbazol-9-yl)-2-hydroxypropyl)amino)-2-(hydroxymethyl)propane-1,3-diol], the “Concentration at which cell lysis was observed within minutes after treatment” value in the test on C. crescentus cells is at least 75 µM. Also, the “Antibacterial activity in the MipZ-YFP assay” value in test [1] was “confirmed as having antibacterial activity”. Besides, the MipZ-YFP localization entry in the test on MipZ-YFP is “caused MipZ-YFP to mislocalize”. For the same molecule, the MIC came out at 200 µM in the test on E. aerogenes; 20 µM in the test on E. coli BW25113 ΔtolC [2] (Escherichia coli, BW25113); 20 µM in the test on E. coli BW25113 ΔtolC [3] (BW25113); 20 µM in the test on E. coli BW25113 ΔtolC [3] (BW25113, read-out: MIC (ΔtolC E. coli)); 160 µM with P. aeruginosa K1119; 160 µM in the test with P. aeruginosa PAO1. Besides, the minimal inhibitory concentration (MIC) in the test on E. coli BW25113 and in the test on P. aeruginosa K1115 was 80 µM throughout. The “Reduction of MIC on deleting tolC in E. coli BW25113” value with E. coli BW25113 ΔtolC [2] (BW25113 vs BW25113 ΔtolC) stood at 4 fold.
